The text below walks through data of US20180214691A1, “NEUROMODULATION DEVICE” (GALVANI BIOELECTRONICS LIMITED, priority 2015, published 2018).

Entries after “also recorded” stand apart in the source; their conditions may differ.

For one experiment, the system named is rats. Briefly: Cystometrograms in the rat PGE2 model of bladder dysfunction. In kind it is in vivo. From the text: In the following examples, two accepted animal models of bladder dysfunction were used. The first was a PGE2 (prostoglandin E2) model, in which installation of PGE2 into rats induces a hyperactive bladder response.
Animal models of bladder dysfunction need to take into account the fact that rodent (e.g. rat) urination behaviour differs from that of humans. However, the following parameters (as defined in Andersson et al. Neurourology and Urodynamics, 30: 636-646 (2011), which is incorporated herein by reference) are accepted measures against which therapeutic interventions can be assessed (adapted from Andersson et al.): • (a) Baseline pressure: minimum pressure between two micturitions. This parameter is important as an internal control for the procedure. • (b) Intermicturition pressure: mean pressure between two micturitions. The IMP is related to the occurrence of non-voiding contractions (NVCs). The more frequent and with higher amplitude the NVCs, the higher the IMP will be. • (c) Threshold pressure: intravesical pressure immediately before micturition. • (d) Maximum pressure: maximum bladder pressure during a micturition cycle. Also known as peak pressure, maximum voiding pressure, or maximum intravesical pressure. It should be noted that this pressure is not identical with the micturition pressure. The true micturition pressure is the pressure at which fluid starts to flow. • (e) Spontaneous activity (SA) or mean intermicturition oscillatory pressure: intermicturition pressure minus baseline pressure. This parameter is an approximate index of spontaneous bladder contractions between micturitions. SA will increase if there are frequent NVCs between micturitions. • (f) Non-voiding contractions (NVCs): defined as increases in intravesical pressure during cystometry, not associated with release of fluid. […] Since threshold pressure is the pressure at onset of micturition, subtraction of baseline pressure from threshold pressure gives the pressure variation between micturitions. • (l) Voiding efficiency: the voided volume expressed as a percentage of bladder capacity (i.e. voided volume/bladder capacity*100) • (m) External urethral sphincter electromyography: electrodes are placed into the external urethral sphincter and electromyography is recorded during bladder filling and voiding. A number of the parameters above were measured for both PGE2 and SHR rats.
A PE-90 polyethylene catheter was inserted into the bladder lumen through a small incision in the apex of the bladder dome. The bladder catheter was connected an infusion pump and a pressure transducer to measure bladder pressure. Additionally, two PFA-coated platinum-iridium wires (0.0055 inch diameter) were bilaterally inserted percutaneously into the external urethral sphincter (EUS) to record EUS EMG. Alternatively, a bipolar paddle electrode was placed intra-abdominally between the external urethral sphincter (EUS) and pubic symphysis (platinum-iridium contacts facing the urethra) to record EUS EMG.
At the start of an experiment, the bladder was continuously filled with physiological saline at room temperature using an infusion pump with an open urethra for 45 minutes to allow recovery post-surgery. The bladder was subsequently emptied, and CMG's were recorded. A single CMG event was characterized by a quiet period, a filling period, and a voiding period at the end of the voiding event, the infusion pump was turned off. The bladder was then emptied and subsequent CMG's were conducted.
PGE2: Control CMG's were conducted under saline infusion. After 2-3 subsequent control CMG events, the bladder was then infused continuously with PGE2 solution for 1 hour to allow for the bladder to reach drug related steady state. Multiple CMG's were then taken.
CMG parameters recorded were previously described by Andersson et al. as outlined above in example 1: model validation. […]

The test system of the next experiment is cats. Briefly: Cat PGE2 model of bladder dysfunction. In kind it is in vivo. Conditions: PGE2 cats versus controls (each cat before PGE2 installation is its own control); N=3. From the text: Pelvic nerve stimulation is also effective in other models of OAB.

As to `CCCCC[C@H](O)/C=C/[C@H]1[C@H](O)CC(=O)[C@@H]1C/C=C\CCCC(=O)O` [PGE2, prostoglandin E2], in the experiment with rats (PGE2 rats versus controls), the NVC duration entry was “decreased; also recorded: reduction”, the bladder capacity result is reported as “reduction”, the maximum bladder pressure result was “reduction” and the threshold bladder pressure entry is listed as “reduction”. The “Δbladder pressure (threshold minus baseline bladder pressure)” value in the experiment with rats (PGE2 rats versus controls) is on record as “reduction”. Moreover, the voiding efficiency result with rats (PGE2 rats versus controls (each rat before PGE2 installation is its own control), bladder infused with PGE2 solution for 1 hour) was “decreased voiding efficiency; also recorded: statistically non-significant reduction”. In addition, the “external urethral sphincter (EUS) EMG activity” value with rats (PGE2 rats versus controls, filling and voiding phases of a CMG event) is listed as “abnormal; also recorded: increase”. Besides, in the experiment with rats (PGE2 rats versus controls, filling phase), the “non-voiding contraction (NVC) magnitude (bladder pressure area under the curve)” value is given as “decreased magnitude; also recorded: reduction”. The bladder capacity result in the experiment on cats was “dose dependent reduction”.
